The nature of data set [1]: compound cytotoxicity in ATH8 cells (HIV CPE inhibition assay). In kind it is cell-based. As to conditions: human, read-out: MTC. Here is the method: (§1) The ATH8 human T-cell line expresses high levels of the CD4 surface antigen and is quite sensitive to the cytopathogenic effect (CPE) of HIV. The cells were propagated in RPMI 1640 medium supplemented with 4mM glutamine, 15% heat-inactivated fetal bovine serum (Biocell), antibiotics (50 units of penicillin and […] of streptomycin per ml), and 50 units of recombinant-derived human interleukin-2 (ala-125; AMGen Biologicals) per ml.
ATH8 cells were used as the primary target in the HIV induced CPE inhibition assay. Cells were treated with polybrene (2 ug/ml in growth medium) for 30 minutes at 37° C., then collected by gentle centrifugation (40×g for 15 minutes at room temperature) and resuspended in clarified (8000×g for 15 minutes at 4° C.) supernate freshly harvested from 48 hours post passage H9/HTL IIIB cells. Following a 60-minute adsorption period at 37° C., the cells were dispensed into the U-bottom wells of 96-well trays (1×10^4 cells in 0.1 ml per well). […] Test compounds were evaluated at seven half-log dilutions ranging from 100 uq/ml to 0.1 uq/ml. […]
(§2) Between 7 and 10 days post infection, all wells were visually monitored for the degree of CPE inhibition as reflected by cell pellet size, and aliquots were taken from selected wells for determination of cell number and viability (based on trypan blue dye exclusion).

In data set [2] the test system is Human Immunodeficiency Virus (HIV). Kind of data set: HIV CPE inhibition assay in ATH8 cells. The format is cell-based. Here is the method: as §1
The clone H9 cell line is another CD4^+ human T-cell line which is permissive for HIV replication but largely resistant to virus induced CPE. H9 cells productively infected with the HTLV IIIB strain of HIV served as the source of infectious virus. These cells were propagated in RPMI 1640 medium supplemented with glutamine and antibiotics as described above, and with 20% heat-inactivated fetal bovine serum. Freshly harvested, undiluted culture supernatant from the H9/HTLV-IIIB producer cells was used for infectious virus inoculum.
The screening of compounds for antiviral activity was performed using a modification of the CPE inhibition assay originally developed by Broder and co workers. This assay is based on the ability of uninfected ATH8 cells to grow and form a pellet at the bottom of a culture tube. Starting about 4 days after HIV addition, infected ATH8 cells begin to die and the pellet starts to break up. By day 10 a clear differential is observable in the size of the cell pellet in uninfected control wells versus infected control wells. The protective effect of test compounds can be assessed by adding them at varying concentrations to the cultured cells at the time of virus infection, then monitoring the status of the cell pellet.
ATH8 cells were used as the primary target in the HIV induced CPE inhibition assay. Cells were treated with polybrene (2 ug/ml in growth medium) for 30 minutes at 37° C., then collected by gentle centrifugation (40×g for 15 minutes at room temperature) and resuspended in clarified (8000×g for 15 minutes at 4° C.) supernate freshly harvested from 48 hours post passage H9/HTL IIIB cells. Following a 60-minute adsorption period at 37° C., the cells were dispensed into the U-bottom wells of 96-well trays (1×10^4 cells in 0.1 ml per well). An equal volume (0.1 ml) of supplemented RPMI 1640 medium containing test compound and twice the normal concentration of interleukin-2 was then added to each well. Test compounds were evaluated at seven half-log dilutions ranging from 100 uq/ml to 0.1 uq/ml. […]
as §2

Data set [3] relates to HSV-1(E-377). Description: plaque reduction, HSV-1(E-377) in Vero cells. The format is cell-based, Herpes simplex virus type 1. The settings on record: Human alphaherpesvirus 1, plaque reduction 50%, read-out: MIC50. The method, then: (§3) After the adsorption period, the infected cell monolayers were treated in duplicate with serial dilutions of the test compound. Duplicate cell controls containing medium alone and virus controls containing medium and virus were run simultaneously with the test compound. […] Plaques visible to the unaided eye were counted and the mean number of plaques in the duplicate wells for each compound concentration tested and for the untreated, virus infected controls were determined.

Data set [4] relates to HSV-2. Description: plaque reduction, HSV-2 in Vero cells. The settings on record: Human alphaherpesvirus 2; HSV-2, Vero, plaque reduction 50%; read-out: MIC50. In kind it is cell-based, Herpes simplex virus type 2. The method, then:
as §3

Data set [5] concerns HSV-1(123). Description: plaque reduction, HSV-1(123) in Vero cells. The format is cell-based, Herpes simplex virus type 1. As to conditions: Human alphaherpesvirus 1, plaque reduction 50%, read-out: MIC50. Here is the method: as §3

Values after ≈ are worked out from the molar mass of the structure shown.

`OCC1CC(n2cnc3c(Cl)ncnc32)C1CO` (centres unmarked) [Example 4B, 3-(6'-chloro-9'H-purin-9'-yl)-1,2-bis(hydroxymethyl)cyclobutane]: the MCC in data set [1] was 10 µg/mL. The VR in data set [2] is listed as 1.1.
Turning to `Nc1nc2c(ncn2C2CC(CO)C2O)c(=O)[nH]1` (centres unmarked) [Example 42P, 9-(2'-hydroxy-3'-hydroxymethyl-1'-cyclobutyl)guanine], the EC50 in data set [3] was found to be 1 µg/mL (≈ 3.98 µM); in data set [4], 1 µg/mL (≈ 3.98 µM); in data set [5], 3 µg/mL (≈ 11.9 µM).

The values above are taken from patent US5153352A, “Process for preparation of intermediates of carbocyclic nucleoside analogs” (priority 1990, dated 1992).
